Test results taken from patent US5679671A, “Amino acid derivative” (Eisai Co., Ltd., priority 1993, dated 1997).

Legend:
Assay type in all cases: biochemical
NEP [1] = target: T1, NEP (Rattus norvegicus, UniProt P07861); experiment: NEP inhibition activity using rat renal cortex (Experiment A-1); parameters: membrane fraction prepared from rat renal cortex; from tissue; host or cells: rat renal cortex, membrane fraction (method of Booth and Kenny); details: rat renal cortex membrane fraction
T1 sequence (P07861 1-750): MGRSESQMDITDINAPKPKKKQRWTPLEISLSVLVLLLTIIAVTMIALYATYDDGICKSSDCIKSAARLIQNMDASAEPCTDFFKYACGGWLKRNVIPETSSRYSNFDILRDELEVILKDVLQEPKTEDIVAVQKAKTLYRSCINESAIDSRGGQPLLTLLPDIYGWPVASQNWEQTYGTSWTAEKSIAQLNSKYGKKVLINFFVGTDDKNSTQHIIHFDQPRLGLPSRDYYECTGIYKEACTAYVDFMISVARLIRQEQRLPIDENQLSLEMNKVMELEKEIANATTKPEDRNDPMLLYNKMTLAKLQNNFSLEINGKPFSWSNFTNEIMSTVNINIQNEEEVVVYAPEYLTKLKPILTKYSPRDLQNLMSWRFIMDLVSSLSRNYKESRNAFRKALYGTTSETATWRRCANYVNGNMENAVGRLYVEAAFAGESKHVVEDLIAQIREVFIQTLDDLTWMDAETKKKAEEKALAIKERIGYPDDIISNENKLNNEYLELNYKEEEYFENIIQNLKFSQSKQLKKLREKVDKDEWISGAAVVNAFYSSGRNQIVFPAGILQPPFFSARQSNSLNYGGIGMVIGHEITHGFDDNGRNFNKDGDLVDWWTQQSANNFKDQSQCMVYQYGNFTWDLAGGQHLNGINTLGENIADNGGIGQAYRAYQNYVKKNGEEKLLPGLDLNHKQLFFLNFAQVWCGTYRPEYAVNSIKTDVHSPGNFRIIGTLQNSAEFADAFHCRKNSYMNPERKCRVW
Experimental: The NEP activity was determined by using a membrane fraction prepared from rat renal cortex in accordance with the method of Booth and Kenny (A Rapid Metod for the Purificaton of Microvilli from Rabbit Kidney., Andrew G. Booth and A. John Kenny, Biochem j., 1974, 142, […].).
The NEP activity was determined by the following manner in accordance with the method of Orlowsky and Wilk (Purification and Specificity of a Membrane-Bound Metalloendopeptidase from Bovine Pituitaries., Marian Orlowsky and Shrwin Wilk, Biochemistry, 1981, 20, 4942-4950.).
(§1) As a substrate, benzoyl-glycyl-arginyl-arginyl-2-naphthylamide (benzoyl-Gly-Arg-Arg-2-naphthylamide (Nova Biochem, Switzerland)) was used. In the presence of an NEP enzyme preparation and excessive leucine aminopeptidase (sigma chemical Co., U.S.A.), the liberated naphthylamine was made to undergo color development with first garnet (Sigma chemical Co., U.S.A.), followed by the measurement of the absorbance at a wavelength of 540 nm.
(§2) With respect to the NEP inhibition activity, the inhibitor was added to the experimental system as described above in such a manner as to give the final concentrations of 1, 3, 10, 30, 100, 300 and 1000 nM, an inhibition curve was prepared, and then the concentration at which 50% inhibition was achieved was taken as IC50.

ACE [2] = target: T2, ACE (Rattus norvegicus, UniProt P47820); experiment: ACE inhibition activity using rat lung (Experiment A-2); details: rat lung membrane fraction, borate buffer pH 8.3
T2 construct: membrane fraction prepared from rat lung; from tissue; host or cells: rat lung, membrane fraction (method of Wu-Wong et al.)
T2 sequence (P47820 36-1313): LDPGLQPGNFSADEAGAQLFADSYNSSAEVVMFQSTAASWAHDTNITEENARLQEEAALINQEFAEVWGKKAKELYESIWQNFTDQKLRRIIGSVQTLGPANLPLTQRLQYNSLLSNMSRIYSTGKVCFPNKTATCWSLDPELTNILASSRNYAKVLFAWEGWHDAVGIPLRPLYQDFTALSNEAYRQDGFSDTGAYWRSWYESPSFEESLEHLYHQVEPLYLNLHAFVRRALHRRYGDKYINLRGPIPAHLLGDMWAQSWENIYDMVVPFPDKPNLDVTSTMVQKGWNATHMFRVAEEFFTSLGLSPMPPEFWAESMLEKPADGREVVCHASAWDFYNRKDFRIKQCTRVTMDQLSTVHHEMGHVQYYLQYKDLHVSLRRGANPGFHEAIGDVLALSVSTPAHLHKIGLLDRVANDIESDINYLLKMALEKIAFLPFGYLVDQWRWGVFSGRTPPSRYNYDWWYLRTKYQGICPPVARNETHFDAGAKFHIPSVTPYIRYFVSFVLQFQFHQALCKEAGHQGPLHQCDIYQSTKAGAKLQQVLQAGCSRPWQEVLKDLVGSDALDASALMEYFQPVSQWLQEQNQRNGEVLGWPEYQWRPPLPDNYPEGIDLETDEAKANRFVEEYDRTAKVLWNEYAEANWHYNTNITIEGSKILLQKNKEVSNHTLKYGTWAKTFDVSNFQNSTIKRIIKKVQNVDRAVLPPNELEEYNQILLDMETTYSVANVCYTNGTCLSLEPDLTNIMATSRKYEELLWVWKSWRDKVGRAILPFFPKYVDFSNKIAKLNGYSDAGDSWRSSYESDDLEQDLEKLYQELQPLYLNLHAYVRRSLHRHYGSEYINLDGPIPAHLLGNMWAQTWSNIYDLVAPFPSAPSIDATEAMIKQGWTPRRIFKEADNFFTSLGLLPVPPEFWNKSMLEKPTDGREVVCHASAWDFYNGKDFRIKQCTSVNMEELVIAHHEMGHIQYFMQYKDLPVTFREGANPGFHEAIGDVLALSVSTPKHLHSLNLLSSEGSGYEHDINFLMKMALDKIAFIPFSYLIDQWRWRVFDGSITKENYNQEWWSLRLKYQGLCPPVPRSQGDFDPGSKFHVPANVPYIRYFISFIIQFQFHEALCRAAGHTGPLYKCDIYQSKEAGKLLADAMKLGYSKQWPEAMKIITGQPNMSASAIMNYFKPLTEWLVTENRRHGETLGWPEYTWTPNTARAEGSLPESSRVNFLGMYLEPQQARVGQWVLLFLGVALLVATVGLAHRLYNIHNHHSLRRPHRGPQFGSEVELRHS
Experimental: (§3) The ACE inhibition activity was determined by using a membrane fraction prepared from rat lung in accordance with the method of Wu-Wong et al. (Characterization of Endthelin Converting Enzyme in Rat Lung., Junshyum R. Wu-Wong, Gerald, P. Budzik, Edward M. Devine and Terry J. Opgenorth, Biochem. Biophys. Res. Commun., 1990, 171, 1291-1296.).
The ACE activity was determined with the use of a modification (modified to a borate buffer, pH 8.3) of the method of Cushman and Cheung (Spectrophotometric Assay and Properties of the Angiotensin-Converting Enzyme of Rabbit Lung., Cushman, D. W. and Cheung H. S., 1971, 20, 1637-1648.).
(§4) In the presence of ACE, the hippurate liberated from hippuryl-histidyl-leucine (Hippuryl-His-Leu (PeptideInstitute Inc., Japan)) was extracted with ethyl acetate and then the absorbance was measured at a wavelength of 228 nm.
as §2, with “ACE” for “NEP”

NEP [3] = target: T1, NEP; experiment: NEP inhibition activity (Experiment C-1); details: Table C-1
Experimental: The NEP activity was determined by the following manner in accordance with the method of Orlowsky and Wilk (Purification and Specificity of a Membrane-Bound Metalloendpeptidase from Bovine Pituitaries., Marian Orlowsky and Shrwin Wilk, Biochemistry, 1981, 20, 4942-4950.).
as §1
as §2, with “test compound” for “inhibitor”, “IC50. As a comparative compound, [4S-[4α,7α(R*),12bβ]]-7-[(1-oxo-2-(S)-thio-3-phenyl-propyl)amino]-1,2,3,4,6,7,8,12b-octahydro-6-oxopyrido-[2,1-a][2]benzazepine-4-carboxylic acid was used.” for “IC50.”

ACE [4] = target: T2, ACE; experiment: ACE inhibition activity using rat lung (Experiment C-2); details: Table C-1; rat lung membrane fraction, borate buffer pH 8.3
Experimental: as §3, with “Gerald” for “Gerald,”
The ACE activity was determined with the use of a modification (modified to a borate buffer, pH 8.3) of the method of Cushman and Cheung (Spectrophotometric Assay and Properties of the Angiotensin-Converting Enzyme of Rabbit Lung., Cushman D. W. and Cheung H. S., 1971, 20, 1637-1648.).
as §4
as §2, with “ACE” for “NEP”, “test compound” for “inhibitor”, “reaction” for “experimental”, “IC50. As a comparative compound, [4S-[4α,7α(R*),12bβ]]-7-[(1-oxo-2-(S)-thio-3-phenyl-propyl)amino]-1,2,3,4,6,7,8,12b-octahydro-6-oxopyrido-[2,1-a][2]benzazepine-4-carboxylic acid was used.” for “IC50.”

ACE [5] = target: T2, ACE; experiment: ACE inhibition activity (Experiment E-1); details: rat lung membrane fraction, pH 8.3
Experimental: As a source of the enzyme ACE, a membrane fraction prepared from rat lung in accordance with the method of Wu-Wong et al. (Characterization of Endthelin Converting Enzyme in Rat Lung., Jinshyum R. Wu-Wong, Gerald, P. Budzik, Edward M. Devine and Terry J. Opgenorth, Biochem. Biophys. Res. Commun., 1990, 171, 1291-1296.) was used. The ACE activity was determined with the use of a modification (modified to a borate buffer pH 8.3) of the method of Cushman and Cheung (Spectrophotometric Assay and Properties of the Angiotensin-Converting Enzyme of Rabbit Lung., Cushman D. W. and Cheung H. S., 1971, 20, 1637-1648.). Now the procedure will be briefly described.
as §4
(§5) To determine the NEP inhibition activity and the ACE inhibition activity, the inhibitor was added to the assay systems of both enzyme activities as described above in such a manner as to give the final concentrations of 1, 3, 10, 30, 100, […] and 1000 nM and inhibition curves were prepared. Then the concentration at which 50% inhibition was achieved was taken as IC50.

NEP [6] = target: T1, NEP; experiment: NEP inhibition activity (Experiment E-1); parameters: membrane fraction prepared from rat renal cortex; from tissue; host or cells: rat renal cortex, membrane fraction (method of Booth and Kenny); details: rat renal cortex membrane fraction
Experimental: As a source of the enzyme NEP, a membrane fraction prepared from rat renal cortex in accordance with the method of Booth and Kenny (A Rapid Method for the Purification of Microvilli from Rabbit Kidney., Andrew G. Booth and A. John Kenny, Biochem. j., 1974, 142,575-581.) was employed. The NEP activity was determined in accordance with the method of Orlowsky and Wilk (Purification and Specificity of a Membrane-Bound Metalloendpeptidase from Bovine Pituitaries., Marian Orlowsky and Shrwin Wilk, Biochemistry, 1981, 20, 4942-4950.). Now the procedure will be briefly described.
as §1, with “(benzoyl-Gly-Arg-Arg-2 naphthylamide” for “(benzoyl-Gly-Arg-Arg-2-naphthylamide”
as §5

O=C(O)CN1C(=O)C(NC(=O)[C@@H](S)Cc2ccccc2)CCc2ccc(-c3ccccc3)cc21 (stereo partly drawn) [Example A-3, 1-Carboxymethyl-3-[(S)-2-mercapto-3-phenylpropionylamino]-8-phenyl-1H-[1]benzazepin-2-one]
IC50 (NEP [1]): 90 nM | IC50 (ACE [2]): 50 nM

CC(C)[C@H](S)C(=O)NC1CCc2ccc(-c3ccccc3)cc2N(CC(=O)O)C1=O (stereo partly shown) [Example A-5]
IC50 (NEP [1]): 160 nM | IC50 (ACE [2]): 50 nM

O=C(O)CN1C(=O)C(NC(=O)[C@@H](S)Cc2ccccc2)CCc2ccccc21 (stereo partly drawn) [Example A-7, 1-Carboxymethyl-3-[(S)-2-mercapto-3-phenylpropionylamino]1H-[1]benzazepin-2-one]
IC50 (NEP [1]): 8.2 nM | IC50 (ACE [2]): 10 nM

CC[C@H](C)[C@H](S)C(=O)N[C@H]1Cc2ccc(NS(C)(=O)=O)cc2[C@H]2CCC[C@@H](C(=O)O)N2C1=O [Example C-15, [4S-[4α,7α(R*),12bβ]]-11-Methylsulfonylamino-7-[[(2S,3S)-3-methyl-1-oxo-2-thiopentyl]amino]-6-oxo-1,2,3,4,6,7,8,12b-octahydropyrido[2,1-a][2]benzazepine-4-carboxylic acid]
IC50 (NEP [3]): 6.6 nM | IC50 (ACE [4]): 12.5 nM

COc1ccc(C[C@H](S)C(=O)N[C@H]2Cc3ccc(-c4ccccc4)cc3[C@H]3CCC[C@@H](C(=O)O)N3C2=O)cc1 [Example E-7, [4S-[4α,7α(R*),12bβ]]-7-[(S)-2-Mercapto-3-(4-methoxyphenyl)propionylamino]-6-oxo-11-phenyl-1,2,3,4,6,7,8,12b-octahydropyrido[2.1-a][2]benzazepine-4-carboxylic acid]
IC50 (ACE [5]): 11 nM | IC50 (NEP [6]): 45 nM
